# Values quoted from earlier work in patent publication US10550186B2, “Cancer therapy targeting intercellular adhesion molecule 4 (ICAM4)” (Beth Israel Deaconess Medical Center, Inc., priority 2014, dated 2020).
# Details: more cytotoxic than the comparators
smiles,measurement,value
COc1cc2cc(c1Cl)N(C)C(=O)C[C@H](OC(=O)[C@H](C)N(C)C(C)=O)[C@]1(C)O[C@H]1[C@H](C)[C@@H]1C[C@@](O)(NC(=O)O1)[C@H](OC)/C=C/C=C(\C)C2 [Maytansine],"cytotoxicity relative to doxorubicin, methotrexate and vinca alkyloid",100- to 1000 fold
